The subject of assay [1] is Phosphorylation of ERK1/2 in A549 cells. Kind of assay: Phospho-ERK1/2 MSD Assay (A549). It counts as cell-based. As to conditions: read-out: pERK IC50 (4 h, A549), 4 h compound treatment.
In assay [2] the test system is Phosphorylation of ERK1/2 in MIA PaCa-2 cells. As to the kind of experiment: Phospho-ERK1/2 MSD Assay. The class given is cell-based. As to conditions: MiaPaCa-2 cells. Here is the method:
(§1) For compounds in Table 9, the following assay conditions were employed:
Phospho-ERK1/2 MSD Assay:
Sixteen hours prior to compound treatment, MIA PaCa-2 cells were seeded in 96-well cell culture plates at a density of 25,000 cells/well and incubated at 37° C., 5% CO2. […] Following compound treatment, cells were stimulated with 10 ng/mL EGF (Roche 11376454001) for 10 min, washed with ice-cold Dulbecco's phosphate-buffered saline, no Ca^2+ or Mg^2+ (ThermoFisher Scientific 14190144), and then lysed in RIPA buffer (50 mM Tris-HCl pH 7.5, 1% Igepal, 0.5% sodium deoxycholate, 150 mM NaCl, and 0.5% sodium dodecyl sulfate) containing protease inhibitors (Roche 4693132001) and phosphatase inhibitors (Roche 4906837001). […] Assay plates were read on a Meso Scale Discovery Sector Imager 6000, and data were analyzed using a 4-parameter logistic model to calculate IC50 values.

Assay [3] addresses GDP-bound KRAS protein (aa 1-169), containing both G12C and C118A amino acid substitutions (Homo sapiens (Human), UniProt P01116, C118A/G12C). As to the kind of experiment: Coupled Nucleotide Exchange Assay. It counts as biochemical. As to conditions: read-out: Coupled Exchange IC50 (2 h); 2 h compound pre-incubation. As to the method: as §1
Coupled Nucleotide Exchange Assay:
The assay plates were then read on a PerkinElmer EnVision Multilabel Reader, using AlphaScreen® technology, and data were analyzed using a 4-parameter logistic model to calculate IC50 values.

Setting [4] is: Homo sapiens, MIA PaCa-2, 4 h, read-out: pERK IC50 (4 h, MiaPaCa-2), 4 h compound treatment.

Read-outs that look alike come from different tables or passages of the source.

GDP-bound KRAS protein (aa 1-169), containing both G12C and C118A amino acid substitutions, sequence (P01116 other isoform, or with tags, fused parts or gaps G12C/C118A): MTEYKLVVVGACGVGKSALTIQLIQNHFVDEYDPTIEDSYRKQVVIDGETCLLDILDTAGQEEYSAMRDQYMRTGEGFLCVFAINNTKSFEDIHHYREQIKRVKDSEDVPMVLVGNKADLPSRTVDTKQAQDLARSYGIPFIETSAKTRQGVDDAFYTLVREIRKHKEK

The IC50 is the concentration that inhibits the measured activity by half. Regarding `C=CC(=O)N1CC(NC(=O)Cn2c(C3CC3)c(C(=O)N3CCC(C)(C)C3)c3cc(Cl)cc(C)c32)C1` [Example 20], the IC50 is greater than 100 µM in assay [1] (Homo sapiens, A549, 4 h) and 1.94 µM in assay [2] (setting [4]). The matching figures for `C=CC(=O)N1CC(NC(=O)Cn2cc(C(=O)NCCOc3c(C)cccc3C)c3cc(Cl)cc(Cl)c32)C1` [Example 37]: greater than 100 µM and 3.33 µM. On to `C=CC(=O)N1CC(NC(=O)Cn2cc(C(=O)NCCOc3ccccc3C)c3cc(Br)ccc32)C1` [Example 156], for which the concentration for half-maximal inhibition (IC50) in assay [1] (Homo sapiens, A549, 4 h) was greater than 100 µM; in assay [2] (setting [4]), 53.4 µM. As for `C=CC(=O)N1CC(NC(=O)Cn2cc(C(=O)N3CCO[C@H](c4ccccc4)C3)c3cc(Br)ccc32)C1` [Example 103], the IC50 was greater than 100 µM in assay [1] (Homo sapiens, A549, 4 h) and 21.6 µM in assay [2] (setting [4]).

Turning to `C=CC(=O)N1CC(NC(=O)Cn2cc(C(=O)N3CCOC(c4ccccc4)C3)c3cc(Br)ccc32)C1` (stereo not drawn) [Example 138], the IC50 in assay [1] (Homo sapiens, A549, 4 h) is greater than 100 µM; in assay [2] (setting [4]) it was 40.5 µM. With `C=CC(=O)N1CC(NC(=O)Cn2cc(C(=O)N3CCc4c(ccnc4OC)C3)c3cc(Br)ccc32)C1` [Example 89], the IC50 in assay [1] (Homo sapiens, A549, 4 h) is greater than 100 µM; in assay [2] (setting [4]) it was 14.9 µM. On the same counts, the results for `C=CC(=O)N1CC(N2CC[C@@H](n3c(C)c(C(=O)N4CCc5c(cccc5OC)C4)c4cc(Br)ccc43)C2=O)C1` [Example 50] are greater than 33.3 µM and 4.81 µM. Consider `C=CC(=O)N1CC(NC(=O)Cn2cc(C(=O)N3CCN(c4ncccc4C)CC3)c3cc(Br)ccc32)C1` [Example 61], for which the IC50 was greater than 33.3 µM in assay [1] (Homo sapiens, A549, 4 h) and 7.06 µM in assay [2] (setting [4]).

`C=CC(=O)N1CC(NC(=O)Cn2cc(C(=O)NCCc3nc4ccccc4n3C)c3cc(Br)ccc32)C1` [Example 174]: the IC50 in assay [1] (Homo sapiens, A549, 4 h) is greater than 100 µM; in assay [2] (setting [4]) it was greater than 100 µM. With `C=CC(=O)N1CC(NC(=O)Cn2cc(C(=O)N3CCc4c(C#N)cccc4C3)c3cc(Br)ccc32)C1` [Example 134], the IC50 in assay [1] (Homo sapiens, A549, 4 h) was greater than 100 µM; in assay [2] (setting [4]), 38 µM.

As to `C=CC(=O)N1CC(NC(=O)Cn2c(C)c(C(=O)N3CCN(c4ccc(C(F)(F)F)cn4)CC3)c3cc(Br)ccc32)C1` [Example 40], the IC50 was determined as 44.6 µM in assay [1] (Homo sapiens, A549, 4 h) and 3.42 µM in assay [2] (setting [4]). The matching figures for `C=CC(=O)N1CC(NC(=O)Cn2c(C)c(C(=O)C3CCc4ccccc4C3)c3cc(Br)ccc32)C1` (stereo not drawn) [Example 65]: 3.47 µM and 7.99 µM.

With `C=CC(=O)N1CC(NC(=O)Cn2cc(C(=O)N3CCc4cc(Br)ccc4C3)c3cc(Br)ccc32)C1` [Example 106], the IC50 turned out to be 44.7 µM in assay [1] and 22.2 µM in assay [2] (read-out: pERK IC50 (4 h, MiaPaCa-2), 4 h compound treatment). For the compound `C=CC(=O)N1CC(N2CCC(n3c(C)c(C(=O)N4CCc5c(cccc5OC)C4)c4cc(Br)ccc43)C2=O)C1` (stereo not drawn) [Example 42], the IC50 in assay [1] (Homo sapiens, A549, 4 h) is greater than 33.3 µM; in assay [2] (setting [4]), 3.78 µM.

Regarding `C=CC(=O)N1CC(N(C)C(=O)Cn2cc(C(=O)N3CCc4c(ccnc4OC)C3)c3c(Cl)c(Cl)ccc32)C1` [Example 7], the IC50 in assay [2] (setting [4]) amounted to 1.33 µM; in assay [3], 0.45 µM.

`C=CC(=O)N1CC(NC(=O)Cn2cc(C(=O)N3CCN(c4ccc(CN(C)C)cn4)CC3)c3cc(Br)ccc32)C1` [Example 159]: the IC50 in assay [1] (Homo sapiens, A549, 4 h) was greater than 100 µM; in assay [2] (setting [4]) it was 57.4 µM. The matching figures for `C=CC(=O)N1CC(NC(=O)Cn2cc(C(=O)NCCOc3c(C)cccc3C)c3cc(Br)ccc32)C1` [Example 68]: greater than 100 µM and 8.81 µM. On the same counts, the results for `C=CC(=O)N1CC(NC(=O)Cn2c(C)c(C(=O)NCCC(=O)Nc3ccccc3CC)c3cc(Br)ccc32)C1` [Example 179] are greater than 100 µM and greater than 100 µM.

With `C=CC(=O)N1CC(NC(=O)Cn2cc(C(=O)On3nnc4cccnc43)c3cc(Br)ccc32)C1` [Example 175], the IC50 in assay [1] (Homo sapiens, A549, 4 h) was greater than 100 µM; in assay [2] (setting [4]) it was greater than 100 µM.

Consider `C=CC(=O)N1CC(NC(=O)Cn2cc(C(=O)N3CCc4c(Br)cc(C)cc4C3)c3cc(Br)ccc32)C1` [Example 120], for which the IC50 turned out to be 28.4 µM in assay [1] (Homo sapiens, A549, 4 h) and 30.8 µM in assay [2] (setting [4]). In the case of `C=CC(=O)N1CC(NC(=O)Cn2cc(C(=O)NCCc3c(OC)ccc4ccccc34)c3cc(Br)ccc32)C1` [Example 168], the IC50 in assay [1] (Homo sapiens, A549, 4 h) is greater than 100 µM; in assay [2] (setting [4]) it was greater than 100 µM. In the case of `C=CC(=O)N1CC(NC(=O)Cn2cc(C(=O)NCCc3nccs3)c3cc(Br)ccc32)C1` [Example 123], the IC50 was greater than 100 µM in assay [1] (Homo sapiens, A549, 4 h) and 32.4 µM in assay [2] (setting [4]). On to `C=CC(=O)N1CC(NC(=O)Cn2c(C)c(C(=O)N3CCc4ncccc4C3)c3cc(Br)ccc32)C1` [Example 116], for which the IC50 in assay [1] (Homo sapiens, A549, 4 h) is greater than 100 µM; in assay [2] (setting [4]), 28.5 µM. The matching figures for `C=CC(=O)N1CC(NC(=O)Cn2cc(C(=O)NCCC(=O)Nc3ccccc3CC)c3cc(Br)ccc32)C1` [Example 167]: greater than 100 µM and greater than 100 µM. On the same counts, the results for `C=CC(=O)N1CC(NC(=O)Cn2c(C)c(C(=O)N3CCN(c4ccc(C#N)cn4)C[C@H]3C)c3cc(Br)ccc32)C1` [Example 16] are greater than 100 µM and 1.79 µM.

Take `C=CC(=O)N1CC(NC(=O)Cn2cc(C(=O)N3CC4(CCN4c4ccccn4)C3)c3cc(Br)ccc32)C1` [Example 148]: the half-maximal inhibitory concentration (IC50) was greater than 100 µM in assay [1] (Homo sapiens, A549, 4 h) and 50.2 µM in assay [2] (setting [4]). The matching figures for `C=CC(=O)N1CC(NC(=O)Cn2cc(C(=O)NCCC(=O)Nc3cc(C)ccc3C)c3cc(Br)ccc32)C1` [Example 169]: greater than 100 µM and greater than 100 µM.

On to `C=CC(=O)N1CC(NC(=O)Cn2cc(C(=O)NCCc3nc4c(s3)CCCC4)c3cc(Br)ccc32)C1` [Example 171], for which the IC50 was greater than 100 µM in assay [1] (Homo sapiens, A549, 4 h) and greater than 100 µM in assay [2] (setting [4]).

Take `C=CC(=O)N1CC(NC(=O)Cn2c(C)c(C(=O)N3CCN(c4ccc(C#N)cn4)CC3)c3cc(Br)ccc32)C1` [Example 83]: the IC50 in assay [1] (Homo sapiens, A549, 4 h) is greater than 100 µM; in assay [2] (setting [4]) it was 13.6 µM. The matching figures for `C=CC(=O)N1CC(NC(=O)Cn2cc(C(=O)NCCCc3nc(C)cs3)c3cc(Br)ccc32)C1` [Example 172]: greater than 100 µM and greater than 100 µM. On the same counts, the results for `C=CC(=O)N1CC(NC(=O)Cn2c(C)c(C(=O)N3CCN(c4ccc([N+](=O)[O-])cn4)CC3)c3cc(Br)ccc32)C1` [Example 46] are greater than 100 µM and 4.08 µM. The matching figures for `C=CC(=O)N1CC(NC(=O)Cn2cc(C(=O)NCCN(C)c3cccc(C)c3)c3cc(Br)ccc32)C1` [Example 173]: greater than 100 µM and greater than 100 µM.

Turning to `C=CC(=O)N1CC(NC(=O)Cn2cc(C(=O)N3CCc4c(ccc(Cl)c4Cl)C3)c3cc(Br)ccc32)C1` [Example 96], the IC50 was found to be 30.5 µM in assay [1] (Homo sapiens, A549, 4 h) and 17.4 µM in assay [2] (setting [4]).

For `C=CC(=O)N1CC(NC(=O)Cn2cc(C(=O)N3CCN(c4ccc(C)cn4)CC3)c3cc(Br)ccc32)C1` [Example 45], the IC50 in assay [1] (Homo sapiens, A549, 4 h) is greater than 100 µM; in assay [2] (setting [4]), 3.96 µM. On to `C=CC(=O)N1CC(NC(=O)Cn2cc(C(=O)N3CCc4cc(Br)ccc4C3)c3cc(Br)ccc32)C1` [Example 104], for which the results for the IC50 in assay [1] and in assay [2] (setting [4]) were 14.6 µM and 21.7 µM, respectively. On to `C=CC(=O)N1CC(NC(=O)Cn2cc(C(=O)N3CCN(c4ccc([N+](=O)[O-])cn4)CC3)c3cc(Br)ccc32)C1` [Example 99], for which the IC50 was greater than 100 µM in assay [1] (Homo sapiens, A549, 4 h) and 18.9 µM in assay [2] (setting [4]). The matching figures for `C=CC(=O)N1CC(NC(=O)Cn2cc(C(=O)N3CCc4cc(C(=O)OC)ccc4C3)c3cc(Br)ccc32)C1` [Example 124]: greater than 100 µM and 32.9 µM. `C=CC(=O)N1CC(N(CC)C(=O)Cn2c(C)c(C(=O)N3CCc4ccccc4C3C)c3cc(Br)cc(C)c32)C1` (stereo not drawn) [Example 72]: the IC50 was determined as 63.4 µM in assay [1] (Homo sapiens, A549, 4 h) and 10.6 µM in assay [2] (setting [4]). Regarding `C=CC(=O)N1CC(C)(NC(=O)Cn2c(C)c(C(=O)N3CCc4c(cccc4OC)C3)c3cc(Br)ccc32)C1` [Example 77], the IC50 amounted to 10.2 µM in assay [1] (Homo sapiens, A549, 4 h) and 11.6 µM in assay [2] (setting [4]).

`C=CC(=O)N1CC(NC(=O)Cn2cc(C(=O)N3CCN(c4cccc(C)n4)CC3)c3cc(Br)ccc32)C1` [Example 48]: the IC50 was greater than 33.3 µM in assay [1] (Homo sapiens, A549, 4 h) and 4.56 µM in assay [2] (setting [4]). `C=CC(=O)N1CC(NC(=O)Cn2c(C)c(C(=O)N3CCc4c(cccc4OC)C3)c3cc(Cl)cc(C)c32)C1` [Example 3-1, 2-(5-Chloro-3-((5-methoxy-3,4-dihydro-2(1H)-isoquinolinyl)carbonyl)-2,7-dimethyl-1H-indol-1-yl)-N-(1-(2-propenoyl)-3-azetidinyl)acetamide]: in assay [1] (Homo sapiens, A549, 4 h), the IC50 is greater than 100 µM.

On to `C=CC(=O)N1CC(NC(=O)Cn2c(C)c(C(=O)N3CCN(c4ccc(C)cn4)CC3)c3cc(Cl)cc(C)c32)C1` [Example 24], for which the IC50 in assay [1] (Homo sapiens, A549, 4 h) was greater than 100 µM. Consider `C=CC(=O)N1CC(NC(=O)Cn2cc(C(=O)N3CCN(c4ccccn4)CC3)c3cc(Br)ccc32)C1` [Example 60], for which the IC50 in assay [1] (Homo sapiens, A549, 4 h) was greater than 100 µM. Still for that read-out and setting: to `C=CC(=O)N1CC(NC(=O)Cn2cc(C(=O)N3CCc4c(Cl)cccc4C3)c3cc(Br)ccc32)C1` [Example 109] belongs 21.3 µM.

(Values after patent US11053226B2, “KRAS G12C inhibitors and methods of using the same” (Amgen Inc., priority 2018, dated 2021).)
